In PMC10587169, “Tuning aminopolycarboxylate chelators for efficient complexation of trivalent actinides” (Scientific Reports, 2023):
Entries after “also recorded” stand apart in the source; their conditions may differ.

What was measured:
[1] = Competitive complexation liquid-liquid extraction with HDEHP; type: binding; details: competitive solvent extractions, T = 20 ± 1 °C; for logβ101 (ML), Am3+ / logβ101 (ML), Eu3+ / logβ111 (MHL), Am3+ / logβ111 (MHL), Eu3+: I = 2.00 M sodium perchlorate; for logβ101 (ML), Am3+ / logβ101 (ML), Eu3+ / logβ111 (MHL), Am3+ / logβ111 (MHL), Eu3+ / logK111, Am3+ / logK111, Eu3+: ±3σ; for logβ101 (ML), Cm3+: p[H+] variation not monitored
Method: (§1) Stability constants for the coordination of Eu^3+, Am^3+, Cm^3+, and Cf^3+ were also achieved by monitoring the suppression of liquid–liquid partitioning of the radiotracer due to the increasing presence of an aqueous complexant. Aqueous solutions were prepared containing sub-millimolar amounts of ligand while maintaining p[H^+] at 1.7, 1.8, 1.9, 2.0, and 2.1. Ionic strength was maintained at 2.00 M using sodium perchlorate. Aqueous complexation was balanced with the appropriate choice of HDEHP concentration in octane to allow accurate quantification of metal distribution. Non-aqueous phases were pre-equilibrated three times with 2.00 M NaClO4 at the corresponding p[H^+]. Preliminary time-dependent studies indicated the phase transfer equilibrium was attained for all measurements with H4octapa and H4pypa-peg (Figures S2 and S3 in the SI). For the mixtures traced with radioisotopes, the activity was measured using gamma spectroscopy (ORTEC GEM50P4 coaxial HPGe detector, DSPEC gamma spectrometer) for ^154Eu (123.07 keV), ^243Am (74.66 keV), and ^249Cf (388.17 keV) and liquid scintillation counting (Perkin Elmer Tri-Carb 3180 TR/SL) for ^248Cm. The ratio of radioisotope activity in the organic and aqueous phases defined the liquid–liquid distribution.
(§2) Liquid–liquid partitioning of trivalent f-elements was monitored in presence of H4octapa and H4pypa-peg using a strong liquid cation exchanger, bis–(2-ethylhexyl)phosphoric acid, HDEHP. This competitive solvent extraction methodology was used to determine the conditional stability constants for complexation of Eu^3+, Am^3+, Cm^3+, and Cf^3+ with H4octapa and H4pypa-peg. The metals, present at radiotracer concentrations ([…]), distributed between an organic phase containing HDEHP in n-octane and an aqueous phase containing the complexant at varying concentrations and aqueous acidity. The interpretation of the competitive complexation liquid–liquid distribution data (SI Tables S3 through S5 for H4octapa and S6 through S8 for H4pypa-peg) considered two complex formation equilibria as described by Eqs. (4) and (5). All collected distribution data indicated the average ligand-to-metal stoichiometry of 1.00 ± 0.04 for H4octapa and 1.00 ± 0.03 for H4pypa-peg (see SI Figures S10A and S11A). The partitioning of a trivalent metal ion as facilitated by a dimerized HDEHP cation exchanger can be expressed by Eq. (6) as quantified by the extraction constant, Kex (subscript org refers to organic-soluble species).6 M^3++3HDEHP2,org⇆MHDEHP23,org+3H^+Kex=MHDEHP23,orgH^+^3/M^3+HDEHP2,org^3
Substitution of equilibrium and extraction constants Eqs. (3)–(5) into Eq. (6) yields Eq. (8).8 DM=KexHDEHP2,org^3H^+^3/1+β101L^4-+β111L^4-H^+
At constant HDEHP concentration and p[H^+], when the distribution of the metal ion in absence of ligand is labelled as D^0, the liquid–liquid partitioning of the metal will adhere to Eq. (9),9 D^0/DM-1=β^appL^4- where β^app is the apparent stability constant as represented by β ^app = β101 + β111[H^+].
The Figs. 7A for H4octapa and Fig. 7C for H4pypa-peg show representative Eu^3+, Am^3+, and Cf^3+ sets of dependencies collected at constant aqueous acidities to determine β^app constants from the slopes of the error-weighted least-squares regression analyses. Equivalent dependencies were also collected at different p[H^+] conditions to study variation of β^app trends with p[H^+] as presented in Figs. 7B,D for H4octapa and H4pypa-peg, respectively. The distribution plots for Eu^3+, Am^3+, and Cf^3+ for H4pypa-peg clearly show variation with the changing aqueous acidity, which yielded good estimates for the conditional stability constants for the formation of ML^− and MHL(aq) (Table 5). The collected trends for Cf^3+ in the presence of H4octapa vary to a lesser extent, enabling the determination of β101 only. The p[H^+] variation was not monitored for the coordination of ^248Cm^3+ with both APC ligands due to limited availability of this radioisotope. […]

[2] = as above; type: binding; details: competitive solvent extractions, T = 20 ± 1 °C, ±3σ
Method: as §1, §2
The stoichiometry for the extraction of trivalent metal ion by HDEHP was verified at 2.85 ± 0.03 by slope analysis study using ^249Cf^3+ as representative ion for H4octapa (SI Figure S10B) and 2.78 ± 0.13 for H4pypa-peg (SI Figure S11B). […]

[3] = Solubility in aqueous electrolyte media (observation); type: physicochemical

| SMILES | logβ101 (ML), Am3+ [1] | logβ101 (ML), Eu3+ [1] | logβ111 (MHL), Am3+ [1] | logβ111 (MHL), Eu3+ [1] | logβ101 (ML), Cm3+ [1] | logK111, Am3+ [1] | logK111, Eu3+ [1] | logβ101 (ML), Cf3+ ([2]; I = 2.00 M sodium perchlorate) | solubility in high ionic strength perchlorate media ([3]; aqueous sodium perchlorate electrolyte medium, 2 M (Na+/H+)ClO4) | logβ111 (MHL), Cf3+ ([2]; I = 2.00 M sodium perchlorate) | logK111, Cf3+ [2] | aqueous solubility compared to unfunctionalized H4pypa ([3]; moderately acidic aqueous electrolyte mixtures) |
| --- | --- | --- | --- | --- | --- | --- | --- | --- | --- | --- | --- | --- |
| O=C(O)CN(CCN(CC(=O)O)Cc1cccc(C(=O)O)n1)Cc1cccc(C(=O)O)n1 [H4octapa, 6,6′-((ethane-1,2-diylbis–((carboxymethyl)azanediyl))bis–(methylene))dipicolinic acid] | 19.3 (6) | 18.59 (2) | – 21.8 (2)^^ | 20.45 (2) | 19.4^^ | – 2.5 (6)^^ | 1.86 (2) | 20.6 (2)^^ | limited; also recorded: Low solubility |  |  |  |
| O=C(O)CN(Cc1cc(-c2cn(CCOCCOCCO)nn2)cc(CN(CC(=O)O)Cc2cccc(C(=O)O)n2)n1)Cc1cccc(C(=O)O)n1 [H4pypa-peg, 6,6'-((((4-(1-(2-(2-(2-hydroxyethoxy)ethoxy)ethyl)-1H-1,2,3-triazol-4-yl)pyridine-2,6-diyl)bis–(methylene))bis–((carboxymethyl)azanediyl))bis–(methylene)) dipicolinic acid] | 19.6 (1)^^ | 18.7 (2) | 21.8 (1)^^ | 20.6 (4) | 19.8 | 2.2 (1)^^ | 1.9 (4) | 21.0 (4)^^ |  | 23.2 (2)^^ | 2.2 (1)^^ | significantly improved aqueous solubility |
